Read-outs that look alike come from different tables or passages of the source.
How the values were obtained:
ROCK1 = biological target: T1, ROCK1 (Homo sapiens, UniProt Q13464); experiment: Rho kinase inhibition assay (IMAP fluorescence polarization), ROCK1; format: biochemical;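 also: kinase reaction run 60 min at room temperature, then phosphorylated substrate captured on IMAP beads for 30 min, with fluorescence polarization read in mP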
T1 construct: purchased Upstate/Chemicon 14-601
Description: (§1) Following the pre-incubation, 10 μM ATP was added to initiate the reaction. After 60 minutes at room temperature, Molecular Devices IMAP™ binding solution was added to bind phosphorylated substrate. After 30 minutes of incubation in the presence of the IMAP™ beads, the fluorescence polarization was read and the ratio was reported as mP. IC50 values for compounds and EC50 values for ATP were calculated using the Prism software from Graphpad.

[1] = Compound plasma concentrations in unsensitized mice at 15 min post administration; format: in vivo; settings: mouse, 15 μmol/kg; mean compound plasma concentration in mice at 15 minutes post oral administration; read-out: Mouse Oral PK
Description: Additionally, compound concentrations were determined in the plasma and lungs of male, ovalbumin-sensitized, Balb/c mice from a murine model of asthma. Test compounds were formulated in water or 1% polysorbate 80 and dosed at 15 μmol/kg for intraperitoneal (IP) or oral (PO) administration or formulated for intratracheal (IT) administration and dosed at 5 μmol/kg, which directly targets the lungs. Following completion of the in vivo study, mice were euthanized and blood and plasma collected approximately 2.5-3 hours post administration of test compound for bronchodialator (BD) studies and 24 hours post administration for anti-inflamatory (AI) studies. Lungs were homogenized in Matrix A lysing tubes using a FastPrep 24 tissue and cell homogenizer (MP Biomedicals, Solon, Ohio). Both plasma samples and lung extracts were assayed for compound concentrations using an on-line, solid phase extraction LC/MS/MS system.

ROCK2 = biological target: T2, ROCK2 (Homo sapiens, UniProt O75116); experiment: Rho kinase inhibition assay (IMAP fluorescence polarization), ROCK2; format: biochemical;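 also: kinase reaction started with 10 µM ATP and run 60 min at room temperature, then phosphorylated substrate captured on IMAP beads for 30 min and fluorescence polarization read in mP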
T2 construct: purchased Upstate/Chemicon 14-451
Description: as §1

p70S6K human enzyme = biological target: T3, p70S6K human enzyme (Homo sapiens, UniProt P23443, T412E); experiment: p70S6K inhibition assay (IMAP FP); format: biochemical;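 also: kinase reaction run at room temperature, phosphorylated substrate captured on IMAP beads and read as fluorescence polarization in mP, IC50 then converted to Ki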
T3 construct: purchased Upstate Chemicon 14-486

Akt3 human enzyme = biological target: T4, Akt3 human enzyme (Homo sapiens, UniProt Q9Y243); experiment: Akt3 inhibition assay (IMAP FP); format: biochemical;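 also: kinase reaction run 60 min at room temperature after 30 µM ATP start, phosphorylated substrate captured on IMAP beads and read as fluorescence polarization (mP)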
T4 construct: purchased Upstate Chemicon 14-502

[2] = 10 μM ATP, read-out: ROCK2 Ki, Avg
[3] = 30 μM ATP, Ki=IC50/(1+([ATP Challenge]/EC50 ATP)), read-out: p70S6K Ki, Avg
[4] = average Ki, read-out: p70S6K Ki
[5] = 30 μM ATP, Ki=IC50/(1+([ATP Challenge]/EC50 ATP)), read-out: Akt3 Ki, Avg

T4 sequence (Q9Y243 whole entry): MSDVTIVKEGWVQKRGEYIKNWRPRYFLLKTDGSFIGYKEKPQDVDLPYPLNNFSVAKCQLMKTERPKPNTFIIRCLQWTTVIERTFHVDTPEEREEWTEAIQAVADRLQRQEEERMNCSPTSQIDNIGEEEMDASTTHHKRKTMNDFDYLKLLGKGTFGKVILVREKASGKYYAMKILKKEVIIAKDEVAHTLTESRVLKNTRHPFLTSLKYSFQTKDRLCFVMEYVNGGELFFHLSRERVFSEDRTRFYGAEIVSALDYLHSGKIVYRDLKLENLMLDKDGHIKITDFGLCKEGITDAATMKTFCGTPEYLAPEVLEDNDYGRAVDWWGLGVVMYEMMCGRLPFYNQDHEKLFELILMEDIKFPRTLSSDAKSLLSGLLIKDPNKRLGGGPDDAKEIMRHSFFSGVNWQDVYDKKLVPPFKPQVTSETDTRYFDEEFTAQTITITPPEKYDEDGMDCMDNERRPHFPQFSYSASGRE
T3 sequence (P23443 1-421 T412E limits assumed): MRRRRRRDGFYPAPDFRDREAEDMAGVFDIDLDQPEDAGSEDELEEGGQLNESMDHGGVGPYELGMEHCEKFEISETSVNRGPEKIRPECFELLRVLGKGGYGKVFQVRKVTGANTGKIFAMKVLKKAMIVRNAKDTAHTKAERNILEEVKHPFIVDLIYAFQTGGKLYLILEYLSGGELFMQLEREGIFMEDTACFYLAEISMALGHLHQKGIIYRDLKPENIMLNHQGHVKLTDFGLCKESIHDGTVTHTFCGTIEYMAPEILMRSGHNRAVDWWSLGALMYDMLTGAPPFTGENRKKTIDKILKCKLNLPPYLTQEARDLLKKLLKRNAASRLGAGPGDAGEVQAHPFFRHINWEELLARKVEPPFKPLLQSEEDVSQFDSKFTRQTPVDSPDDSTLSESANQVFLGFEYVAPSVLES
T2 sequence (O75116 11-552 limits assumed): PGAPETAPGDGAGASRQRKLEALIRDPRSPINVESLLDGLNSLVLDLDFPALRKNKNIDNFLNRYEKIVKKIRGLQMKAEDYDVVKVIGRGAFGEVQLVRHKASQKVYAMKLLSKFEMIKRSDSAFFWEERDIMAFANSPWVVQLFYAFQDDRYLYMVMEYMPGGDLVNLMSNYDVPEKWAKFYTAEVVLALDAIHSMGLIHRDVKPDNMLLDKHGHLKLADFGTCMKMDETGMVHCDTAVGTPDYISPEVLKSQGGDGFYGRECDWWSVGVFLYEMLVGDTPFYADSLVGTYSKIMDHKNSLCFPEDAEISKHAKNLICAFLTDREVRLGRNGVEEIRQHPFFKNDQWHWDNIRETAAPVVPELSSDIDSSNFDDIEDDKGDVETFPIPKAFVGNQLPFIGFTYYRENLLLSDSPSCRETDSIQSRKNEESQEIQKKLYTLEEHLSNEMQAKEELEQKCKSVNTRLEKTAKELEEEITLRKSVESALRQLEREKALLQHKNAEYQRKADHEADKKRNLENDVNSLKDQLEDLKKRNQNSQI
T1 sequence (Q13464 17-535 limits assumed): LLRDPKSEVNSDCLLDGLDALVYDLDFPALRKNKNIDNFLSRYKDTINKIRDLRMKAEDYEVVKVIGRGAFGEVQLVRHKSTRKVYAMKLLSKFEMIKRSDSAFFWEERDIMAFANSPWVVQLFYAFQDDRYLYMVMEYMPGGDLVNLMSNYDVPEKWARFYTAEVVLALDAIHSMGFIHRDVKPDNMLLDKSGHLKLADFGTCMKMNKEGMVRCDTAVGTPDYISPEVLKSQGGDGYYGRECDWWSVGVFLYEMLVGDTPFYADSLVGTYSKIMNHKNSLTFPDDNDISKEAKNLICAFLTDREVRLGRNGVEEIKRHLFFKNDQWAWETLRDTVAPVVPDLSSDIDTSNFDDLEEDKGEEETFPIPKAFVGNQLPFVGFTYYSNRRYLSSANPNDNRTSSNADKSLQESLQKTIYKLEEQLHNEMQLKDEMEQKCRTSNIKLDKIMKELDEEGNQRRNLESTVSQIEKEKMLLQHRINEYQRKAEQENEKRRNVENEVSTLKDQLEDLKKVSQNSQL

SMILES: CSc1ccc(CN2CCC[C@H](Nc3ccc4[nH]ncc4c3)C2)cc1 [Compound 1.075, (S)-N-(1-(4-(methylthio)benzyl)piperidin-3-yl)-1H-indazol-5-amine]
- Ki (ROCK1; Avg, 10 μM ATP): 48.7 nM
- Ki (ROCK1; average Ki): 48.7 nM
- concentration at 15 min [1]: 348 nM
- Ki (ROCK2; [2]): 4.4 nM
- Ki (ROCK2; average Ki, read-out: ROCK2 Ki): 4.4 nM
- Ki (p70S6K human enzyme; [3]): 975 nM
- Ki (p70S6K human enzyme; [4]): 975 nM
- Ki (Akt3 human enzyme; [5]): 5320 nM
- Ki (Akt3 human enzyme; average Ki, read-out: Akt3 Ki): 5320 nM

SMILES: C#Cc1ccc(CN2CCC[C@H](Nc3ccc4[nH]ncc4c3)C2)cc1 [Compound 1.077, (S)-N-(1-(4-ethynylbenzyl)piperidin-3-yl)-1H-indazol-5-amine]
- Ki (ROCK1; Avg, 10 μM ATP): 76.1 nM
- Ki (ROCK1; average Ki): 76.1 nM
- concentration at 15 min [1]: 26 nM
- Ki (ROCK2; [2]): 11.1 nM
- Ki (ROCK2; average Ki, read-out: ROCK2 Ki): 11.1 nM
- Ki (p70S6K human enzyme; [3]): 716 nM
- Ki (p70S6K human enzyme; [4]): 716 nM
- Ki (Akt3 human enzyme; [5]): 5250 nM
- Ki (Akt3 human enzyme; average Ki, read-out: Akt3 Ki): 5250 nM

SMILES: COc1ccc(CN2CCC[C@H](Nc3ccc4[nH]ncc4c3)C2)cc1 [Compound 1.079, (S)-N-(1-(4-methoxybenzyl)piperidin-3-yl)-1H-indazol-5-amine]
- Ki (ROCK1; Avg, 10 μM ATP): 71.5 nM
- Ki (ROCK1; average Ki): 71.5 nM
- concentration at 15 min [1]: 2440 nM
- Ki (ROCK2; [2]): 4.7 nM
- Ki (ROCK2; average Ki, read-out: ROCK2 Ki): 4.7 nM
- Ki (p70S6K human enzyme; [3]): 3010 nM
- Ki (p70S6K human enzyme; [4]): 3010 nM
- Ki (Akt3 human enzyme; [5]): 7190 nM
- Ki (Akt3 human enzyme; average Ki, read-out: Akt3 Ki): 7190 nM

SMILES: CS(=O)(=O)Nc1cccc(CN2CCC[C@@H](Nc3ccc4[nH]ncc4c3)C2)c1 [Compound 1.093, (R)-N-(3-((3-(1H-indazol-5-ylamino)piperidin-1-yl)methyl)phenyl)methanesulfonamide]
- Ki (ROCK1; Avg, 10 μM ATP): 64.5 nM
- Ki (ROCK1; average Ki): 64.5 nM
- concentration at 15 min [1]: 363 nM
- Ki (ROCK2; [2]): 7.7 nM
- Ki (ROCK2; average Ki, read-out: ROCK2 Ki): 7.7 nM
- Ki (p70S6K human enzyme; [3]): 2030 nM
- Ki (p70S6K human enzyme; [4]): 2030 nM
- Ki (Akt3 human enzyme; [5]): 1820 nM
- Ki (Akt3 human enzyme; average Ki, read-out: Akt3 Ki): 1820 nM

SMILES: OCCn1ccc2ccc(CN3CCC[C@H](Nc4ccc5[nH]ncc5c4)C3)cc21 [Compound 1.109, (S)-2-(6-((3-(1H-indazol-5-ylamino)piperidin-1-yl)methyl)-1H-indol-1-yl)ethanol]
- Ki (ROCK1; Avg, 10 μM ATP): 58.8 nM
- Ki (ROCK1; average Ki): 58.8 nM
- concentration at 15 min [1]: 187 nM
- Ki (ROCK2; [2]): 9.6 nM
- Ki (ROCK2; average Ki, read-out: ROCK2 Ki): 9.6 nM
- Ki (p70S6K human enzyme; [3]): 2500 nM
- Ki (p70S6K human enzyme; [4]): 2500 nM
- Ki (Akt3 human enzyme; [5]): 5190 nM
- Ki (Akt3 human enzyme; average Ki, read-out: Akt3 Ki): 5190 nM

SMILES: O=C(COc1cccc(CN2CCC[C@@H](Nc3ccc4[nH]ncc4c3)C2)c1)Nc1cccnc1 [Compound 1.126, (R)-2-(3-((3-(1H-indazol-5-ylamino)piperidin-1-yl)methyl)phenoxy)-N-(pyridin-3-yl)acetamide]
- Ki (ROCK1; Avg, 10 μM ATP): 76.2 nM
- Ki (ROCK1; average Ki): 76.2 nM
- concentration at 15 min [1]: 0 nM
- Ki (ROCK2; [2]): 17.2 nM
- Ki (ROCK2; average Ki, read-out: ROCK2 Ki): 17.2 nM

SMILES: Cc1ccc(CN2CCC[C@@H](Nc3ccc4[nH]ncc4c3)C2)cc1 [Compound 1.133, (R)-N-(1-(4-methylbenzyl)piperidin-3-yl)-1H-indazol-5-amine]
- Ki (ROCK1; Avg, 10 μM ATP): 25 nM
- Ki (ROCK1; average Ki): 25 nM
- concentration at 15 min [1]: 1100 nM
- Ki (ROCK2; [2]): 4.3 nM
- Ki (ROCK2; average Ki, read-out: ROCK2 Ki): 4.3 nM
- Ki (p70S6K human enzyme; [3]): 532 nM
- Ki (p70S6K human enzyme; [4]): 532 nM
- Ki (Akt3 human enzyme; [5]): 148 nM
- Ki (Akt3 human enzyme; average Ki, read-out: Akt3 Ki): 148 nM

SMILES: Brc1ccc(CN2CCC[C@@H](Nc3ccc4[nH]ncc4c3)C2)cc1 [Compound 1.134, (R)-N-(1-(4-bromobenzyl)piperidin-3-yl)-1H-indazol-5-amine]
- Ki (ROCK1; Avg, 10 μM ATP): 22.4 nM
- Ki (ROCK1; average Ki): 22.4 nM
- concentration at 15 min [1]: 1550 nM
- Ki (ROCK2; [2]): 4.4 nM
- Ki (ROCK2; average Ki, read-out: ROCK2 Ki): 4.4 nM
- Ki (p70S6K human enzyme; [3]): 520 nM
- Ki (p70S6K human enzyme; [4]): 520 nM
- Ki (Akt3 human enzyme; [5]): 151 nM
- Ki (Akt3 human enzyme; average Ki, read-out: Akt3 Ki): 151 nM

SMILES: Cc1ccc(CN2CCC[C@@H](Nc3ccc4[nH]ncc4c3)C2)c(C)c1 [Compound 1.137, (R)-N-(1-(2,4-dimethylbenzyl)piperidin-3-yl)-1H-indazol-5-amine]
- Ki (ROCK1; Avg, 10 μM ATP): 25.8 nM
- Ki (ROCK1; average Ki): 36.3 nM
- concentration at 15 min [1]: 557 nM
- Ki (ROCK2; [2]): 5.1 nM
- Ki (ROCK2; average Ki, read-out: ROCK2 Ki): 7.2 nM
- Ki (p70S6K human enzyme; [3]): 354 nM
- Ki (p70S6K human enzyme; [4]): 354 nM
- Ki (Akt3 human enzyme; [5]): 198 nM
- Ki (Akt3 human enzyme; average Ki, read-out: Akt3 Ki): 198 nM

SMILES: CSc1cccc(CN2CCC[C@@H](Nc3ccc4[nH]ncc4c3)C2)c1 [Compound 1.159, (R)-N-(1-(3-(methylthio)benzyl)piperidin-3-yl)-1H-indazol-5-amine]
- Ki (ROCK1; Avg, 10 μM ATP): 48.1 nM
- Ki (ROCK2; [2]): 10.1 nM
- Ki (p70S6K human enzyme; [3]): 2060 nM
- Ki (Akt3 human enzyme; [5]): 1230 nM

SMILES: Clc1cccc(CN2CCC[C@H](Nc3ccc4[nH]ncc4c3)C2)c1 [Compound 1.170, (S)-N-(1-(3-chlorobenzyl)piperidin-3-yl)-1H-indazol-5-amine]
- Ki (ROCK1; Avg, 10 μM ATP): 80 nM
- Ki (ROCK2; [2]): 12.5 nM
- Ki (p70S6K human enzyme; [3]): 2050 nM
- Ki (Akt3 human enzyme; [5]): 7810 nM

SMILES: CC(C)(C)OC(=O)NCc1cccc(CN2CCC[C@H](Nc3ccc4[nH]ncc4c3)C2)c1 [Compound 1.176, (S)-tert-butyl 3-((3-(1H-indazol-5-ylamino)piperidin-1-yl)methyl)benzylcarbamate]
- Ki (ROCK1; Avg, 10 μM ATP): 314 nM
- Ki (ROCK1; average Ki): 314 nM
- concentration at 15 min [1]: 89 nM
- Ki (p70S6K human enzyme; [3]): 8760 nM
- Ki (p70S6K human enzyme; [4]): 8760 nM
- Ki (Akt3 human enzyme; [5]): 20900 nM
- Ki (Akt3 human enzyme; average Ki, read-out: Akt3 Ki): 20900 nM

SMILES: FC(F)(F)c1ccc(CN2CCC[C@@H](Nc3ccc4[nH]ncc4c3)C2)cc1 [Compound 1.178, (R)-N-(1-(4-(trifluoromethyl)benzyl)piperidin-3-yl)-1H-indazol-5-amine]
- Ki (ROCK1; Avg, 10 μM ATP): 138 nM
- Ki (ROCK2; [2]): 24.9 nM
- Ki (p70S6K human enzyme; [3]): 1120 nM
- Ki (Akt3 human enzyme; [5]): 711 nM
